# Key:
# bile acid loaded model = assay: Cholestasis-caused hepatopathy model, bile acid loaded model, 4.5 days (Test Example 14); type: in vivo, rat; conditions: administration period 4.5 days, N = 6, average ± standard error
# Protocol: “Cholestasis-Caused Hepatopathy” Model (Bile Acid Loaded Model)
# In this test example, the model of hepatopathy due to loading of bile acid was carried out similarly to the protocol B in Test Example 5. However, the administration period in this test example was changed to 4.5 days. […] Therefore, the compounds have proven to be useful as drugs for the treatment and prevention of cholestasis-caused hepatopathy, in particular as drugs for the treatment and prevention of primary biliary cirrhosis and primary sclerosing cholangitis. Moreover, the compounds of other examples of the present invention not shown in Tables 18 and 19 can be expected to have excellent ameliorating effects on cholestasis-caused hepatopathy.
# [1] = tested on: bile duct partial ligation model; assay: Cholestasis-caused hepatopathy model, bile duct partial ligation, IBAT inhibiting compounds, blood after 24 hours (Test Example 13); type: in vivo, rat; conditions: blood 24 hours after administration, N = 3, average ± standard error
# Protocol: “Cholestasis-Caused Hepatopathy” Model (Bile Duct Partial Ligation Model)
# In this test example, the model of cholestasis-caused hepatopathy was tested according to the method described in Test Example 5.
# That is, the abdomens of 8 to 10 weeks old SD (IGS) male rats were cut open under anesthesia with pentobarbital and partial ligation surgery of the bile duct was carried out. After the surgery, 200 mg/kg of bile acid and an IBAT inhibiting compound were forcibly orally administered to the rats (each n=3). As a control group, physiological saline […] was administered (n=3). To observe the effect of the partial ligation surgery, a sham group (the abdomen was cut open under anesthesia with pentobarbital but partial ligation surgery of the bile duct was not carried out) and an untreated group were established (each n=3). After 24 hours from the administration a blood sample was taken from the abdominal aorta and AST, ALT, and ALP in the blood were measured using the method described in Test Example 5.
# Caco 2 cells = assay: Toxicity with respect to alimentary canal: cytotoxicity to Caco 2, LDH activity (Test Example 12); type: cell-based, human; conditions: LDH activity after 2 hours; for Toxicity (%) to Caco 2: relative to cytolytic agent = 100%
# Protocol: Toxicity With Respect to Alimentary Canal
# To evaluate the toxicity of the compounds of the present invention to the alimentary canal, the cytotoxicity to Caco 2, which is a human originated small intestine epithelial cell line, was tested by referring to the method of Bestwick C S et al. [Biochimica et Biophysica Acta 1474: 47-55, 1999].
# That is, Caco 2 cells (purchased from ATCC) were inoculated on a 96-well plate such that there were 10,000 cells/well [MEM-E medium, 10% FBS (Fetal Bovine Serum), 1% NEAA (Non Essential Amino Acid) solution, (both manufactured by GIBCO PHARMACEUTICAL COMPANY)]. After culturing for 48 hours, the test compounds were diluted with the culture medium and added to the respective wells. After 2 hours, 50 μl of the culture broth was collected and the LDH activity in the collected culture broth was measured by using an LDH activity measuring kit (CytoTox 96 Non-Radioactive Cytotoxicity Assay, manufactured by PROMEGA CORPORATION). Relative activities were calculated assuming the LDH activity as 100% when the Caco 2 cells were treated with the cytolytic agent and the obtained relative activities were taken as cytotoxicities to Caco 2 cell.
# human IBAT = target: T1, human IBAT (Homo sapiens, UniProt Q12908); assay: In vitro assay of temporarily expressed human IBAT transporter using Cos 7 cells (Test Example 8); type: cell-based; conditions: Cos 7 cells temporarily expressing human IBAT; [3H] taurocholate 8 μM, 37° C., 60 minutes
# T1 construct: expressed in transfected cells; host or cells: Cos 7
# T1 sequence (Q12908 1-348): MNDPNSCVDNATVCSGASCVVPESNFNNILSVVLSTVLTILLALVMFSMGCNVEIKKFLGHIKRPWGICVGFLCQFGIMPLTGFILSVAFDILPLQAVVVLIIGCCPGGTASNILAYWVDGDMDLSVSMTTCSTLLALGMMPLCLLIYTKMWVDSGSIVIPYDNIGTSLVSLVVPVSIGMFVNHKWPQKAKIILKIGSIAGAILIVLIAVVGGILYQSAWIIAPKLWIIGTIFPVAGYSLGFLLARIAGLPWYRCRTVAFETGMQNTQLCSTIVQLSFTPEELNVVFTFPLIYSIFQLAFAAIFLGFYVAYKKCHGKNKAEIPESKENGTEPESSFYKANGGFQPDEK
# Procedure, shortened: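 Cos 7 cells transiently transfected with human or rat IBAT cDNA, assayed one day later in Hank's buffer with 25 mM glucose, 10 mM HEPES (pH 7.4) plus compound. Uptake of 8 μM [^3H]taurocholate over 60 min at 37 °C, stopped with 1 mM taurocholate washes; lysate radioactivity by scintillation counting.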
# [2] = tested on: Cholic acid-loaded rat model; assay: Bile acid-decreasing effect in portal vein of rats loaded with cholic acid (Test Example 2); type: in vivo; conditions: 0.1 mg/kg oral with cholic acid 200 mg/kg, portal vein blood after 2 hours
# Protocol: Bile Acid-Decreasing Effect in Portal Vein of Rats Loaded With Cholic Acid
# In this test example, the test for confirming the bile acid-decreasing effect in portal vein of cholic acid-loaded rats was carried out according to the method described in Pharmacology and Therapeutics [Jpn Pharmacol. Ther., Vol. 24 Supplement, 1996, 103 (S-577)-110 (S-584)].
# That is, 7 to 9 weeks old SD (IGS) rats were starved on the day before the test and thereafter. […] After 2 hours from the administration, a sample of blood was taken from a portal vein and total serum bile acid level was measured to study the effect of the test compound (n=6). Further, as a control group, a group (n=6) loaded with cholic acid (200 mg/kg) only was prepared and the same test procedure was followed. A commercially available kit (trade name: SOTANJUSAN-TEST WAKO-(SOTANJUSAN=total bile acid), manufactured by WAKO PURE CHEMICAL […], LTD.) was used for the measurement of bile acid. Assuming the value of the control group, which is a group in which no test compound was used, as 100%, the rate of decrease (percentage (%) of decrease) of the bile acid level when a fixed amount of the test compound was used was determined.
IC50 (human IBAT) [nM],Structure (SMILES),"ALP ([1]; Table 17, 10 mg/kg oral) [IU/L]","ALT ([1]; Table 17, 10 mg/kg oral) [IU/L]","AST ([1]; Table 17, 10 mg/kg oral) [IU/L]",Toxicity (%) to Caco 2 (Caco 2 cells; 3 μM) [%],Toxicity (%) to Caco 2 (Caco 2 cells; 10 μM) [%],Toxicity (%) to Caco 2 (Caco 2 cells; 30 μM) [%],Rate of decrease (%) of bile acid ([2]; HCO-60 0.1%) [%],further results
–,"CCC(CC)CC(=O)c1c(C(=O)OC)c(-c2ccc(OC)c(OC)c2)c2c(OC)c(OC)c(OC)cc2c1O [Compound E, Methyl 1-(3,4-dimethoxyphenyl)-3-(3-ethylvaleryl)-4-hydroxy-6,7,8-trimethoxy-2-naphthoate]",1345 ± 145,180 ± 68,280 ± 72,–,–,–,–,"ALT (bile acid loaded model; Table 19, 10 mg/kg): 46 ± 3 IU/L; AST (bile acid loaded model; Table 19, 10 mg/kg): 105 ± 11 IU/L"
–,"CCCC[C@@]1(CC)CS(=O)(=O)c2cc(OC)c(OC)cc2[C@H](c2ccccc2)N1 (relative stereo) [Compound B, Trans-3-butyl-3-ethyl-2,3,4,5-tetrahydro-7,8-dimethoxy-5-phenyl-1,4-benzothiazepine-1,1-dioxide]",–,–,–,–,–,–,–,"ALT (bile acid loaded model; Table 19, 0.1 mg/kg): 54 ± 6 IU/L; AST (bile acid loaded model; Table 19, 0.1 mg/kg): 110 ± 4 IU/L; ALP ([1]; Table 17, 1 mg/kg oral): 1335 ± 116 IU/L; ALT ([1]; Table 17, 1 mg/kg oral): 138 ± 54 IU/L; AST ([1]; Table 17, 1 mg/kg oral): 261 ± 63 IU/L"
–,"CCCCC1(CCCC)CS(=O)(=O)c2ccc(N(C)C)cc2C(c2ccc(OCc3ccc(C[N+]45CCN(CC4)CC5)cc3)cc2)N1.[Cl-] (stereo not shown) [Comparative Example 2, 1-{4-[4-(3,3-Dibutyl-7-dimethylamino-1,1-dioxo-2,3,4,5-tetrahydro-1,4-benzothiazepin-5-yl)phenoxymethyl]benzyl}-4-aza-1-azoniabicyclo[2.2.2]octane chloride]",1266 ± 160,281 ± 103,547 ± 159,–,–,–,–,cytotoxicity to Caco 2 cells (Caco 2 cells; in words): showed cytotoxicity to small intestine epithelial cell line at low concentrations
–,"CCCC[C@@]1(CC)CS(=O)(=O)c2ccccc2[C@H](c2ccccc2)N1 (relative stereo) [Compound C, Trans-3-butyl-3-ethyl-2,3,4,5-tetrahydro-5-phenyl-1,4-benzothiazepine-1,1-dioxide]",–,–,–,–,–,–,–,"ALT (bile acid loaded model; Table 18, 10 mg/kg): 53 ± 6 IU/L; AST (bile acid loaded model; Table 18, 10 mg/kg): 100 ± 2 IU/L; ALP ([1]; Table 16, 10 mg/kg oral): 948 ± 208 IU/L; ALT ([1]; Table 16, 10 mg/kg oral): 113 ± 44 IU/L; AST ([1]; Table 16, 10 mg/kg oral): 313 ± 82 IU/L"
43,CCCCC1(CCCC)CS(=O)(=O)c2ccc(N(C)C)cc2C(c2cccc(NC(=S)CCCCC[N+](C)(C)Cc3ccccc3)c2)N1 (stereo not shown) [Example 3835],–,–,–,<1,<1,<1,–,Rate of decrease (%) of bile acid ([2]; Tween 20 0.05%): 23%
48,CCCCC1(CCCC)CS(=O)(=O)c2ccc(N(C)C)cc2C(c2cccc(NC(=S)Nc3ccc(C[n+]4ccc5ccccc5c4)cc3)c2)N1.[Br-] (stereo not shown) [Example 3783],–,–,–,<1,<1,<1,16,–
41,CCCCC1(CCCC)CS(=O)(=O)c2ccc(N(C)C)cc2C(c2cccc(NC(=S)Nc3ccc(C[N+]4(Cc5ccccc5)CCC(CO)CC4)cc3)c2)N1.[Br-] (stereo not shown) [Example 3607],–,–,–,<1,<1,<1,36,–
59,CCCCC1(CCCC)CS(=O)(=O)c2ccc(N(C)C)cc2C(c2cccc(NC(=S)Nc3ccc(C[N+]4(Cc5ccccc5)CCC(CCO)CC4)cc3)c2)N1.[Br-] (stereo not shown) [Example 3608],–,–,–,<1,<1,<1,43,–
–,"CCC(CC)CC(=O)c1c(C(=O)OC)c(-c2ccc(OC)c(OC)c2)c2c(OC)c(OC)c(OC)cc2c1OC1OC(C(=O)O)C(O)C(O)C1O [Compound F, {1-O-[4-(3,4-dimethoxyphenyl)-2-(3-ethyl-pentanoyl)-5,6,7-trimethoxy-3-(methoxycarbonyl)naphthalen-1-yl]-β-D-glucopyranosido}uronic acid]",1423 ± 115,214 ± 53,320 ± 66,–,–,–,–,"ALT (bile acid loaded model; Table 19, 10 mg/kg): 58 ± 5 IU/L; AST (bile acid loaded model; Table 19, 10 mg/kg): 123 ± 16 IU/L"
–,"CCCCC1(CCCC)CS(=O)(=O)c2ccc(N(C)C)cc2[C@H](c2cccc([N+](C)(C)C)c2)[C@@H]1O.[I-] (relative stereo) [Compound D, Cis-[3-(3,3-dibutyl-7-dimethylamino-4-hydroxy-1,1-dioxo-2,3,4,5-tetrahydro-1-benzothiepin-5-yl)phenyl]trimethyl-ammonium iodide]",–,–,–,–,–,–,–,"ALT (bile acid loaded model; Table 18, 10 mg/kg): 46 ± 4 IU/L; AST (bile acid loaded model; Table 18, 10 mg/kg): 100 ± 9 IU/L; ALP ([1]; Table 16, 10 mg/kg oral): 715 ± 24 IU/L; ALT ([1]; Table 16, 10 mg/kg oral): 73 ± 17 IU/L; AST ([1]; Table 16, 10 mg/kg oral): 275 ± 12 IU/L"
